Assay results taken from patent US11999727B2 (Tango Therapeutics, Inc., priority 2020, dated 2024).

Columns and labels:
[1] = test system: HAP1 MTAP-deleted cell line; assay: SDMA in-cell western assay, HAP1 MTAP-deleted; type: cell-based; conditions: for IC50: Homo sapiens, HAP1, SDMA in-cell western, HAP1 MTAP-deleted, read-out: HAP 1 MTAP deleted IC50; for MTAP intact/deleted ratio: IC50 ratio HAP1 MTAP-intact / HAP1 MTAP-deleted, SDMA in-cell western
Procedure, shortened: (§1)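 Compounds were tested in HAP1 cells differing only in MTAP status (endogenous expression versus null). Cellular SDMA levels were then measured by in-cell western, giving an IC50 in each background.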

[2] = test system: HAP1 MTAP-intact cell line; assay: SDMA in-cell western assay, HAP1 MTAP-intact; type: cell-based; conditions: Homo sapiens, HAP1, SDMA in-cell western, HAP1 MTAP-intact; read-out: MTAP HAP1 intact IC50
Procedure, shortened: as §1

PRMT5 [3] = target: T1, PRMT5 (Homo sapiens, UniProt O14744); assay: PRMT5 biochemical IC50 assay with SAM as cofactor; conditions: PRMT5, SAM as cofactor; read-out: SAM IC50
T1 construct: purchased Viva (custom protein)

[4] = test system: HAP1 MTAP-deleted cell line; assay: Viability assay, MTAP-deleted cell line; type: cell-based; conditions: Homo sapiens, HAP1, viability assay, MTAP-deleted cell line; read-out: HAP1 MTAP deleted viability
Excerpt: Table 1 additionally indicates IC50 values in a viability assay for the MTAP-deleted cell line (column 10), indicating the effect of treatment with compound on cell survival.

PRMT5 [5] = target: T1, PRMT5; assay: PRMT5 biochemical IC50 assay with MTA as cofactor; conditions: PRMT5, MTA as cofactor; read-out: MTA IC50
PRMT5 [6] = target: T1, PRMT5; assay: PRMT5 biochemical IC50 assay with no cofactor; conditions: PRMT5, no cofactor; read-out: No Cofactor/rel IC50
Excerpt: Table 1 indicates IC50 values (μM) against PRMT5 for exemplary compounds in the presence of SAM as cofactor, with no cofactor, and with MTA as cofactor, respectively (columns 4-6). […] Ki values can be calculated from the IC50 values as described in the Examples section. As detailed in the Examples section, for the assay performed in the presence of SAM, IC50=Ki×1.5 (Ki=IC50/1.5).

T1 sequence (O14744 whole entry): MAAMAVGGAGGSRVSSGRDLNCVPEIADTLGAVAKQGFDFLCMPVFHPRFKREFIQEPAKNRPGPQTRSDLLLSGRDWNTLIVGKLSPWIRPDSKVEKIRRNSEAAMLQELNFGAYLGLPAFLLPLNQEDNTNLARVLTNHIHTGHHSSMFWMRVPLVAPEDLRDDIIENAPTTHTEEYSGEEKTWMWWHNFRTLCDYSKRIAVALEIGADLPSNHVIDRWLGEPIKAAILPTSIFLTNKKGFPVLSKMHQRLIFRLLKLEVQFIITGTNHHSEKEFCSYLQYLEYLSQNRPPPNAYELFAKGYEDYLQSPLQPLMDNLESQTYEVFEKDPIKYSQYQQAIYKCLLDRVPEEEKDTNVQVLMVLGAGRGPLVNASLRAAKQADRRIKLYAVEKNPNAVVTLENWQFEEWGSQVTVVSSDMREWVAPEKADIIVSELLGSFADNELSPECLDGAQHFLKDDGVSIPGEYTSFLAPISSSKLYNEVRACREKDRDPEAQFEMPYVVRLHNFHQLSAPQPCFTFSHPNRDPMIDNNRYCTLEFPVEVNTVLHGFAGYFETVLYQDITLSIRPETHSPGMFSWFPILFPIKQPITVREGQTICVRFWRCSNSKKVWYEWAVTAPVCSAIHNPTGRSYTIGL
T1 sequence (Q9BQA1 whole entry partner): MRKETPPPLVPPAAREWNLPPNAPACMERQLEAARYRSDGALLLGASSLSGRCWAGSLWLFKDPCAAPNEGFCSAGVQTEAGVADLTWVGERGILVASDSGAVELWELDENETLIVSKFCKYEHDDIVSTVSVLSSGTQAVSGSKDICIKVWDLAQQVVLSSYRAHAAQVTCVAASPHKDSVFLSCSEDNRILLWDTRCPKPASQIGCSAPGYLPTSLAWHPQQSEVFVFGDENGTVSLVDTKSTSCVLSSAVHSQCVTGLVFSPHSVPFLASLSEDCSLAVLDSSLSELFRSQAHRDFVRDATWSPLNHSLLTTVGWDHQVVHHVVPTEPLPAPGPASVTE

SMILES	IC50 [1]	MTAP intact/deleted ratio [1]	IC50 [2]	IC50 (PRMT5 [3])	IC50 [4]	IC50 (PRMT5 [5])	IC50 (PRMT5 [6])
Cc1nc2cc([C@@H]3CC[C@@H](C)CN3C(=O)C(=O)Nc3cnc(N)c(C)c3)ccc2[nH]1 (single isomer, unassigned) [Compound 963]	> 1000 nM	B (an IC50 ratio greater than or equal to 3 fold but lower than 10 fold)	> 1000 nM	> 500 nM	> 10000 nM	> 500 nM	> 500 nM
Cc1cc(NC(=O)C(=O)N2C[C@@H](C)CC[C@@H]2c2cccc3[nH]cnc23)cnc1N (single isomer, unassigned) [Compound 964]	> 1000 nM	C (an IC50 ratio of less than 3 fold)	> 1000 nM	> 500 nM	> 10000 nM	> 500 nM	> 500 nM
COc1ncc(NC(=O)C(=O)N2C[C@H](C)CC[C@H]2c2cc(Cl)cc(Cl)c2)cc1C(N)=O (single isomer, unassigned) [Compound 965]	> 1000 nM	B (an IC50 ratio greater than or equal to 3 fold but lower than 10 fold)	> 1000 nM	> 500 nM	> 10000 nM	> 500 nM	> 500 nM
CCc1cc(NC(=O)C(=O)N2C[C@H](C)CC[C@H]2c2cc(Cl)cc(Cl)c2)cnc1N (single isomer, unassigned) [Compound 966]	> 1000 nM	B (an IC50 ratio greater than or equal to 3 fold but lower than 10 fold)	> 1000 nM	> 500 nM	> 10000 nM	50 to 500 nM	> 500 nM
CCc1cc(NC(=O)C(=O)N2C[C@@H](C)CC[C@@H]2c2cc3[nH]ncc3s2)cnc1N (single isomer, unassigned) [Compound 967]	> 1000 nM	B (an IC50 ratio greater than or equal to 3 fold but lower than 10 fold)	> 1000 nM	> 500 nM	> 10000 nM	> 500 nM	> 500 nM
COc1ncc(NC(=O)C(=O)N2C[C@@H](C)CC[C@@H]2c2cc3cn[nH]c3s2)cc1C(N)=O (single isomer, unassigned) [Compound 968, 2-methoxy-5-(2-(5-methyl-2-(1H-thieno[2,3-c]pyrazol-5-yl)piperidin-1-yl)-2-oxoacetamido)nicotinamide]	< 100 nM	A (an IC50 ratio greater than or equal to 10 fold)	100 to 1000 nM	50 to 500 nM	< 1000 nM	< 50 nM	< 50 nM
Cc1cc(NC(=O)C(=O)N2C[C@H](C)CC[C@H]2c2cn[nH]c2)cnc1N (single isomer, unassigned) [Compound 969]	> 1000 nM	C (an IC50 ratio of less than 3 fold)	> 1000 nM	> 500 nM	> 10000 nM	> 500 nM	> 500 nM
C[C@@H]1CC[C@@H](c2cn[nH]c2)N(C(=O)C(=O)Nc2cncc(C(N)=O)c2)C1 (single isomer, unassigned) [Compound 970]	> 1000 nM	C (an IC50 ratio of less than 3 fold)	> 1000 nM	> 500 nM	> 10000 nM	> 500 nM	> 500 nM
Cc1cc(NC(=O)C(=O)N2C[C@@H](C)CC[C@@H]2c2ccc3sc(C(F)(F)F)nc3c2)cnc1N (single isomer, unassigned) [Compound 972]	< 100 nM	B (an IC50 ratio greater than or equal to 3 fold but lower than 10 fold)	< 100 nM	50 to 500 nM	< 1000 nM	< 50 nM	50 to 500 nM
Cc1ccc([C@H]2CC(F)(F)[C@H](C)CN2C(=O)C(=O)Nc2cnc(N)c(C)c2)cn1 (single isomer, unassigned) [Compound 973]	< 100 nM	A (an IC50 ratio greater than or equal to 10 fold)	100 to 1000 nM	50 to 500 nM	1000 to 10000 nM	< 50 nM	50 to 500 nM
Cc1ccc([C@H]2CC(F)(F)[C@H](C)CN2C(=O)C(=O)Nc2cncc(C(N)=O)c2)cn1 (single isomer, unassigned) [Compound 974]	< 100 nM	A (an IC50 ratio greater than or equal to 10 fold)	> 1000 nM	50 to 500 nM	1000 to 10000 nM	< 50 nM	50 to 500 nM
C[C@H]1CC[C@H](c2cc[nH]n2)N(C(=O)C(=O)Nc2cncc(C(N)=O)c2)C1 (single isomer, unassigned) [Compound 978]	> 1000 nM	C (an IC50 ratio of less than 3 fold)	> 1000 nM	> 500 nM	> 10000 nM	50 to 500 nM	50 to 500 nM
Cc1cc(NC(=O)C(=O)N2C[C@H](C)CC[C@H]2c2ccc(NS(C)(=O)=O)nc2)cnc1N (single isomer, unassigned) [Compound 980]	> 1000 nM	B (an IC50 ratio greater than or equal to 3 fold but lower than 10 fold)	> 1000 nM	50 to 500 nM	> 10000 nM	50 to 500 nM	50 to 500 nM
COc1ncc(NC(=O)C(=O)N2C[C@H](C)CC[C@H]2c2ccc(NS(C)(=O)=O)nc2)cc1C(N)=O (single isomer, unassigned) [Compound 986]	100 to 1000 nM	A (an IC50 ratio greater than or equal to 10 fold)	> 1000 nM	> 500 nM	1000 to 10000 nM	< 50 nM	50 to 500 nM
Cc1cc(NC(=O)C(=O)N2C[C@@H](C)CC[C@@H]2c2ccc3c(c2)CCNC3=O)cnc1N (single isomer, unassigned) [Compound 988]	100 to 1000 nM	A (an IC50 ratio greater than or equal to 10 fold)	> 1000 nM	> 500 nM	1000 to 10000 nM	< 50 nM	50 to 500 nM
CCc1cc(NC(=O)C(=O)N2C[C@H](C)CC[C@H]2c2ccc(NS(C)(=O)=O)nc2)cnc1N (single isomer, unassigned) [Compound 995]	100 to 1000 nM	A (an IC50 ratio greater than or equal to 10 fold)	> 1000 nM	50 to 500 nM	> 10000 nM	50 to 500 nM	50 to 500 nM
Cc1cc(NC(=O)C(=O)N2C[C@@H](C)CC[C@@H]2c2ccc3sc(N)nc3c2)cnc1N (single isomer, unassigned) [Compound 997]	< 100 nM	B (an IC50 ratio greater than or equal to 3 fold but lower than 10 fold)	< 100 nM	50 to 500 nM	< 1000 nM	< 50 nM	< 50 nM
Cc1cc(NC(=O)C(=O)N2C[C@@H](C)CC[C@@H]2c2ccc(NS(C)(=O)=O)nc2)cnc1N (single isomer, unassigned) [Compound 998]	> 1000 nM	C (an IC50 ratio of less than 3 fold)	> 1000 nM	> 500 nM	> 10000 nM	> 500 nM	> 500 nM
